PMC10844353, “Dose–response effects on HbA1c and bodyweight reduction of survodutide, a dual glucagon/GLP-1 receptor agonist, compared with placebo and open-label semaglutide in people with type 2 diabetes: a randomised clinical trial” (Diabetologia, 2023)

Assays:
[1] = tested on: participants with type 2 diabetes; test: Phase II trial: adverse events (safety and tolerability); type: in vivo, human; conditions: up to 1.0 mg qw open-label
Protocol: (VAS), the Patient’s Global Impression of Severity (PGI-S) for difficulty to control eating behaviours and the 7-point profile of self-monitoring of blood glucose (SMBG).
At each study visit, participants were advised to adhere to the specific recommended diet and exercise plan provided to them during diet and exercise counselling throughout the study.
Survodutide was made available in vials (2 mg/ml, 1 ml fill volume per vial) for dose escalation in Weeks 1–6 and in pre-filled syringes (various concentrations, 0.5 ml fill volume) for maintenance dose in Weeks 7–16. The placebo solution (isotonic sodium chloride) was filled into identical vials or pre-filled syringes. […]
Safety and tolerability were assessed based on the general occurrence of treatment -emergent adverse even ts, safety laboratory parameters, physical examination, vital sign measurements and 12 -lead ECG . ECG services were externally provided and recordings were evaluated centrally.
(§1) MMRM, as for the primary endpoint, and descriptive statistics. All safety endpoints, NASH-related scores and SMBG were analysed descriptively. […]

[2] = tested on: participants with type 2 diabetes; test: Phase II trial: exploratory biomarkers and NASH-related scores, change from baseline at EoT; type: in vivo, human; conditions: up to 1.0 mg qw open-label, after 16 weeks
Excerpt: Pharmacodynamic endpoints were the changes from baseline in exploratory biomarkers related to liver function and fatty liver disease (plasma levels of cytokeratin 18 and Pro-C3 and enhanced liver fibrosis [ELF] score), glucose metabolism (adiponectin and fasting insulin and C-peptide levels) and target receptor engagement (amino acid and glucagon levels). Exploratory NASH-related scores (Fibrosis-4 [Fib-4] score, aspartate aminotransferase/platelet ratio [APRI] and non-alcoholic fatty liver disease [NAFLD] fibrosis score) were assessed as safety-related endpoints.
HbA1c was assessed at screening, weeks 1, 5, 8, 12 and 16, EoT and follow-up and analysed centrally. Bodyweight was measured at every visit (screening, weeks 1–8, 12 and 16, EoT and follow-up). Waist circumference was measured at screening, weeks 1 and 6 and EoT. Waist circumference was measured at the midpoint between the lowest rib and the iliac crest. Participants were provided with a glucose monitoring device for weekly use at home during the study. Participant-reported outcomes (Three-Factor Eating Questionnaire [TFEQ-R18 V2], Patient Global Impression of Severity [PGI-S] and a hunger visual analogue scale [VAS]) were assessed at weeks 1, 5 and 8 and EoT in a fasted state. […]
as §1

[3] = Phase II trial: pharmacokinetics (steady state, dose proportionality of trough concentrations); type: in vivo, human
Protocol: The attainment of steady state and dose proportionality of survodutide were assessed as pharmacokinetic endpoints.
HbA1c was assessed at screening, weeks 1, 5, 8, 12 and 16, EoT and follow-up and analysed centrally. Bodyweight was measured at every visit (screening, weeks 1–8, 12 and 16, EoT and follow-up). Waist circumference was measured at screening, weeks 1 and 6 and EoT. Waist circumference was measured at the midpoint between the lowest rib and the iliac crest. Participants were provided with a glucose monitoring device for weekly use at home during the study. Participant-reported outcomes (Three-Factor Eating Questionnaire [TFEQ-R18 V2], Patient Global Impression of Severity [PGI-S] and a hunger visual analogue scale [VAS]) were assessed at weeks 1, 5 and 8 and EoT in a fasted state. Blood sampling for pharmacokinetics was carried out at every visit (weeks 1–8, 12 and 16, EoT and follow-up) and blood sampling for exploratory biomarkers was carried out at weeks 1, 5, 8 and 12, EoT and follow-up. Safety assessments are described in the ESM Methods.

[4] = tested on: people with type 2 diabetes or overweight/obesity; conditions: AWARD-5, 52 weeks; cited from earlier work
Excerpt: Glucagon-like peptide-1 receptor (GLP-1R) agonists, such as liraglutide and semaglutide, have been developed for the treatment of both type 2 diabetes and obesity. […] Apart from the well-characterised gastrointestinal (GI) adverse events (AEs), GLP-1R agonists are generally well tolerated. ... || Survodutide (BI 456906) is a novel subcutaneous GCGR/GLP-1R dual agonist in development for the treatment of people with type 2 diabetes, obesity and non-alcoholic steatohepatitis (NASH). Addition of a C18 fatty acid into the acylated peptide, as a half-life-extending principle, allows for weekly administration of survodutide. […] In ... || In addition to semaglutide, other GLP-1R agonists now approved for the treatment of type 2 diabetes have been investigated in combination with background metformin therapy. […] The maximum reduct ... || (+ 2 further places)

[5] = in vivo; cited from earlier work

## Semaglutide: GLP-1R agonist; open-label reference control, up to 1.0 mg qw
[1]
  Participants reporting severe AEs: none
[2]
  Change from baseline in glucagon: no relevant changes

## Survodutide
[3]; DG1–5, plasma trough concentrations
  Time at which steady state appeared to be achieved (visually): 8 week
[3]; DG6, plasma trough concentrations
  Time at which steady state appeared to be achieved (visually): 12 week
[3]; escalating weekly or biweekly sc doses
  Dose proportionality of plasma trough concentrations: approximately dose-proportional

## dulaglutide: GLP-1R agonist approved for the treatment of type 2 diabetes
[4]
  Bodyweight reduction: –3.1 kg

## oxyntomodulin: endogenous proglucagon derivative, GCGR/GLP-1R dual agonist
[5]
  Half-life: very short
